# In US20230053540A1, “TREATMENT OF LIVER INJURY” (Massachusetts Institute of Technology, priority 2019, published 2023):
# System: hepatocytes
# Experiment: Seq-Well scRNA-Seq of hepatocytes after APAP overdose (signature scores, DEG vs untreated)
# Type: in vivo, mouse
structure (smiles),measurement,setting,value
"CC(=O)Nc1ccc(O)cc1 [APAP, acetaminophen]",Slc25a10 avg_logFC,A96 vs untreated (UT),0.2508
same,Slc25a10 pct.1,A96 vs untreated (UT),0.701
same,Slc25a13 avg_logFC,A96 vs untreated (UT),0.2573
same,Slc25a13 pct.1,A96 vs untreated (UT),0.786
same,Slc25a20 avg_logFC,A96 vs untreated (UT),0.3215
same,Slc25a20 pct.1,A96 vs untreated (UT),0.671
same,Slc25a47 avg_logFC,A96 vs untreated (UT),0.2777
same,Slc25a47 pct.1,A96 vs untreated (UT),0.96
same,Slc27a2 avg_logFC,A96 vs untreated (UT),0.3931
same,Slc27a2 pct.1,A96 vs untreated (UT),0.988
same,Slc27a5 avg_logFC,A96 vs untreated (UT),0.2567
same,Slc27a5 pct.1,A96 vs untreated (UT),0.958
same,Slc40a1 avg_logFC,A96 vs untreated (UT),0.336
same,Slc40a1 pct.1,A96 vs untreated (UT),0.551
same,Slco1a4 avg_logFC,A96 vs untreated (UT),0.4652
same,Slco1a4 pct.1,A96 vs untreated (UT),0.507
same,Snord13 avg_logFC,A96 vs untreated (UT),0.2659
same,Snord13 pct.1,A96 vs untreated (UT),0.386
same,Snord118 avg_logFC,A96 vs untreated (UT),0.5783
same,Snord118 pct.1,A96 vs untreated (UT),0.564
same,St3gal5 avg_logFC,A96 vs untreated (UT),0.3862
same,St3gal5 pct.1,A96 vs untreated (UT),0.71
same,Sult1a1 avg_logFC,A96 vs untreated (UT),0.522
same,Sult1a1 pct.1,A96 vs untreated (UT),0.881
same,Sult1d1 avg_logFC,A96 vs untreated (UT),0.4421
same,Sult1d1 pct.1,A96 vs untreated (UT),0.855
same,Tat avg_logFC,A96 vs untreated (UT),0.2529
same,Tat pct.1,A96 vs untreated (UT),0.981
same,Tgoln1 avg_logFC,A96 vs untreated (UT),0.3801
same,Tgoln1 pct.1,A96 vs untreated (UT),0.756
same,Tmbim6 avg_logFC,A96 vs untreated (UT),0.2624
same,Tmbim6 pct.1,A96 vs untreated (UT),0.988
same,Tmed5 avg_logFC,A96 vs untreated (UT),0.3754
same,Tmed5 pct.1,A96 vs untreated (UT),0.714
same,Tmem106b avg_logFC,A96 vs untreated (UT),0.3285
same,Tmem106b pct.1,A96 vs untreated (UT),0.727
same,Tob1 avg_logFC,A96 vs untreated (UT),0.3731
same,Tob1 pct.1,A96 vs untreated (UT),0.649
same,Trp53inp1 avg_logFC,A96 vs untreated (UT),0.3647
same,Trp53inp1 pct.1,A96 vs untreated (UT),0.551
same,Tsc22d3 avg_logFC,A96 vs untreated (UT),0.3425
same,Tsc22d3 pct.1,A96 vs untreated (UT),0.534
same,Ttpa avg_logFC,A96 vs untreated (UT),0.6266
same,Ttpa pct.1,A96 vs untreated (UT),0.98
same,Ttr avg_logFC,A96 vs untreated (UT),0.3459
same,Ttr pct.1,A96 vs untreated (UT),1
same,Ubc avg_logFC,A96 vs untreated (UT),0.3578
same,Ubc pct.1,A96 vs untreated (UT),0.968
same,Ubr3 avg_logFC,A96 vs untreated (UT),0.2529
same,Ubr3 pct.1,A96 vs untreated (UT),0.585
same,Uhrf1bp1l avg_logFC,A96 vs untreated (UT),0.2559
same,Uhrf1bp1l pct.1,A96 vs untreated (UT),0.415
same,Upp2 avg_logFC,A96 vs untreated (UT),−0.2859
same,Upp2 pct.1,A96 vs untreated (UT),0.545
same,Uroc1 avg_logFC,A96 vs untreated (UT),0.3074
same,Uroc1 pct.1,A96 vs untreated (UT),0.726
same,Wbp1l avg_logFC,A96 vs untreated (UT),0.3456
same,Wbp1l pct.1,A96 vs untreated (UT),0.789
same,Zfp36l1 avg_logFC,A96 vs untreated (UT),0.3298
same,Zfp36l1 pct.1,A96 vs untreated (UT),0.601
same,Zfp91 avg_logFC,A96 vs untreated (UT),0.3741
same,Zfp91 pct.1,A96 vs untreated (UT),0.693
same,Zfp683 avg_logFC,A96 vs untreated (UT),0.3027
same,Zfp683 pct.1,A96 vs untreated (UT),0.476
same,mt-Co1 avg_logFC,A96 vs untreated (UT),−0.8459
same,mt-Co1 pct.1,A96 vs untreated (UT),0.983
same,mt-Co2 avg_logFC,A96 vs untreated (UT),−1.033
same,mt-Co2 pct.1,A96 vs untreated (UT),0.313
same,mt-Co3 avg_logFC,A96 vs untreated (UT),−1.046
same,mt-Co3 pct.1,A96 vs untreated (UT),0.213
same,mt-Cytb avg_logFC,A96 vs untreated (UT),−0.7105
same,mt-Cytb pct.1,A96 vs untreated (UT),0.99
same,mt-Nd1 avg_logFC,A96 vs untreated (UT),−0.5843
same,mt-Nd1 pct.1,A96 vs untreated (UT),0.996
same,mt-Nd2 avg_logFC,A96 vs untreated (UT),−0.7197
same,mt-Nd2 pct.1,A96 vs untreated (UT),0.994
same,mt-Nd4 avg_logFC,A96 vs untreated (UT),−0.8488
same,mt-Nd4 pct.1,A96 vs untreated (UT),0.986
same,mt-Nd5 avg_logFC,A96 vs untreated (UT),−0.573
same,mt-Nd5 pct.1,A96 vs untreated (UT),0.964
same,mt-Rnr1 avg_logFC,A96 vs untreated (UT),−0.3398
same,mt-Rnr1 pct.1,A96 vs untreated (UT),1
same,mt-Rnr2 avg_logFC,A96 vs untreated (UT),−0.3332
same,mt-Rnr2 pct.1,A96 vs untreated (UT),1
same,mt-Tp avg_logFC,A96 vs untreated (UT),0.3085
same,mt-Tp pct.1,A96 vs untreated (UT),0.329
same,Acaa1b avg_logFC,APAP composite vs UT,−0.8508
same,Agt avg_logFC,APAP composite vs UT,0.5205
same,Ahsg avg_logFC,APAP composite vs UT,0.2925
same,Akr1c6 avg_logFC,APAP composite vs UT,−1.586
same,Ang avg_logFC,APAP composite vs UT,0.7089
same,Angptl3 avg_logFC,APAP composite vs UT,0.7089
same,Apoa2 avg_logFC,APAP composite vs UT,−0.5455
same,Apoc1 avg_logFC,APAP composite vs UT,−0.8713
same,Apoc2 avg_logFC,APAP composite vs UT,0.7821
same,Apoe avg_logFC,APAP composite vs UT,−0.4213
same,Apoh avg_logFC,APAP composite vs UT,0.4118
same,Cdo1 avg_logFC,APAP composite vs UT,0.517
same,Ces1c avg_logFC,APAP composite vs UT,0.4668
same,Chchd1 avg_logFC,APAP composite vs UT,0.7207
same,Chchd10 avg_logFC,APAP composite vs UT,0.7207
